Here are results for 17 compounds from ChEMBL document CHEMBL1201862, “PubChem BioAssay data set” (2004).

Molecules are shown by their SMILES.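 Cultured in 96-well plates, cells were exposed to test compound for 48 hours across five concentrations. GI50: concentration for 50% inhibition of growth.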 Calls of active or inactive are those of the source. Cut-off read from the data, not from the text of the source: active = GI50 up to about 1.1 µM and inactive = higher.

Assay in all cases: NCI anticancer screen, dose series, 48 h
Test [1] has as its system CCRF-CEM.
Test [2] concerns HCT-116.
Test [3] has as its system K562.
Test [4] has as its system KM12.
For test [5], the system named is RXF 393.
Test [6] concerns SF-295.
The test system of test [7] is SK-MEL-2.
For test [8], the system named is SNB-19.
Test [9] has as its system SNB-75.
Test [10] has as its system SR.
In test [11] the test system is TK-10.
Test [12] deals with U-251.
In test [13] the test system is CAKI-1.

On to `CCN1C(=O)N(C)C(O)c2c1nc1ccccn1c2=O` (stereo unspecified), for which the GI50 in [1] is 27.8 µM (inactive); in test [2] it was 28.6 µM (inactive); in test [3] it was 34 µM (inactive); in test [4], 36.5 µM (inactive); in test [5], 23 µM (inactive); in [6], 28 µM (inactive). The GI50 was 22.2 µM (inactive) in test [7]; 39.4 µM (inactive) in [8]; 20.6 µM (inactive) in test [9]; 29.1 µM (inactive) in test [10]; 22.1 µM (inactive) in test [11]; 30.8 µM (inactive) in test [12].
`O=C1c2c(c3c4ccccc4n4c3c3c2c2ccccc2n3C/C=C\C4)C(=O)N1Cc1ccccc1`: the GI50 in [1], in test [2], in test [3], in test [4], in [5] and in [6] was > 100 µM (inactive) each time. The GI50 in test [8] is > 100 µM (inactive); in [9] it was 30.2 µM (inactive); in test [10], > 100 µM (inactive); in test [11] it was > 100 µM (inactive); in test [12], 46.5 µM (inactive).
`C/C(CC(=O)Nc1ccc(C)cc1)=N\NC(N)=S`: the GI50 in test [1] was > 100 µM (inactive); in test [2], > 100 µM (inactive); in test [3], 64.4 µM (inactive); in test [4], 77.4 µM (inactive); in test [5] it was > 100 µM (inactive); in test [6] it was > 100 µM (inactive). Further, the GI50 in test [7], in test [9], in test [11] and in test [12] was > 100 µM (inactive) in each case.
On to `O=C1CC(c2c(-c3ccccc3)[nH]c3ccccc23)C(=O)N1c1ccccc1` (stereo unspecified), for which the GI50 is 59.4 µM (inactive) in test [13]; 63.7 µM (inactive) in test [1]; 41.9 µM (inactive) in test [2]; 57.1 µM (inactive) in test [3]; 44.4 µM (inactive) in [4]; 27.4 µM (inactive) in [5]. Also, the GI50 in [6] was 13.5 µM (inactive); in [7], > 100 µM (inactive); in test [9], > 100 µM (inactive); in test [11] it was > 100 µM (inactive); in [12], 88.9 µM (inactive).
As to `CCc1ccccc1NC(=O)C(=O)C(C#N)c1c(Cl)cccc1Cl` (stereo unspecified), the GI50 in test [13], in test [1], in test [2], in test [3], in test [4] and in [6] was > 100 µM (inactive) each time. The GI50 in test [7], in test [8], in test [9], in test [10], in [11] and in test [12] was > 100 µM (inactive) each time.
For the compound `Cc1ccc(S(=O)(=O)OC(c2ccc(Cl)cc2Cl)C2OC(=O)c3ccccc32)cc1` (stereo unspecified), the GI50 in test [1] was 34.8 µM (inactive); in test [2], 30.8 µM (inactive); in [3], 33.6 µM (inactive); in test [4], 36 µM (inactive); in test [5] it was 67.1 µM (inactive); in test [6] it was 90.2 µM (inactive). The GI50 is 73.6 µM (inactive) in test [7]; 42.7 µM (inactive) in test [8]; 30.6 µM (inactive) in [10]; > 100 µM (inactive) in test [11]; 56.4 µM (inactive) in [12].
For the compound `CC(=O)OCCOCn1c2ccccc2c2c3c(c4c5ccccc5n(COCCOC(C)=O)c4c21)C(=O)N(Cc1ccccc1)C3=O`, the GI50 in test [1], in test [2], in test [3], in [5], in test [7] and in test [8] was > 100 µM (inactive) each time. For the same compound, the values for the GI50 in test [9], in test [11] and in [12] were 76.7 µM (inactive), > 100 µM (inactive) and > 100 µM (inactive), respectively.
For `Cc1ccc(-c2cc(-c3ccccc3)c(C#N)c(=O)[nH]2)cc1`, the GI50 in [1], in test [2], in [3], in test [4], in test [5] and in test [6] was > 100 µM (inactive) in each case. Also, the GI50 is > 100 µM (inactive) in test [8]; 53.2 µM (inactive) in test [9]; > 100 µM (inactive) in [10]; > 100 µM (inactive) in test [11]; > 100 µM (inactive) in test [12].
As to `Cc1cc2c(cc1C)[n+]([O-])c(C(=O)C/C(=N/OCCCc1ccccc1)C(=O)Nc1cc(Cl)ccc1Cl)c(C)[n+]2[O-]`, the GI50 in test [13] was > 100 µM (inactive); in test [1] it was 33.3 µM (inactive); in test [2] it was > 100 µM (inactive); in test [3], > 100 µM (inactive); in [4], > 100 µM (inactive); in test [5], > 100 µM (inactive). In addition, the GI50 in [6] is > 100 µM (inactive); in [7], 0.0562 µM (active); in [8] it was > 100 µM (inactive); in [9] it was > 100 µM (inactive); in test [11], > 100 µM (inactive); in test [12], > 100 µM (inactive).
`CCOC(=O)C1=C(C)N(NC(=O)Nc2ccccc2)C2(N)N(NC(=O)Nc3ccccc3)C(C)=C(C(=O)OCC)C12C(=O)OCC` (stereo unspecified): the GI50 in test [2] is 29.9 µM (inactive); in [3], > 100 µM (inactive); in test [4], > 100 µM (inactive); in [5] it was 3.09 µM (inactive); in test [6], 47.8 µM (inactive); in [7], 52.7 µM (inactive). For the same compound, the GI50 in test [8] is 38.9 µM (inactive); in [9], 25.9 µM (inactive); in test [10], 34 µM (inactive); in test [11] it was 80.4 µM (inactive); in [12], 33 µM (inactive).
On to `COc1ccc2c(c1OC)C(C=C(c1ccccc1)c1ccccc1)CN(C)C2` (stereo unspecified), for which the GI50 is 14.2 µM (inactive) in test [13]; 21.3 µM (inactive) in test [1]; 8.39 µM (inactive) in [2]; 6.21 µM (inactive) in test [3]; 18.9 µM (inactive) in test [4]; 16.2 µM (inactive) in test [6]. Also, the GI50 was 29.9 µM (inactive) in test [8], 34.3 µM (inactive) in test [9], 22 µM (inactive) in test [11] and 20 µM (inactive) in [12].
Regarding `O=C1C2C3C=C4c5ccccc5N(c5ccccc5)C4(C2C(=O)N1c1ccccc1)C1C(=O)N(c2ccccc2)C(=O)C31` (stereo unspecified), the GI50 was > 100 µM (inactive) in test [13]; 8.81 µM (inactive) in test [1]; > 100 µM (inactive) in test [2]; > 100 µM (inactive) in test [3]; > 100 µM (inactive) in test [4]; > 100 µM (inactive) in test [6]. For the same compound, the GI50 is > 100 µM (inactive) in test [7]; > 100 µM (inactive) in [8]; 65.8 µM (inactive) in test [9]; 6.35 µM (inactive) in test [10]; > 100 µM (inactive) in test [11]; > 100 µM (inactive) in test [12].
As to `CC(=O)OCC(=O)[C@@]12OC(C)(C)O[C@@H]1C[C@H]1[C@@H]3CC(C=O)=C4C=C(OCCCl)CC[C@]4(C)[C@@]3(F)[C@@H](O)C[C@@]12C` [FORMOCORTAL], the GI50 was 0.486 µM (active) in test [1]; 10.4 µM (inactive) in test [2]; 4.74 µM (inactive) in test [3]; 16.7 µM (inactive) in test [4]; 5.93 µM (inactive) in test [5]; 5.42 µM (inactive) in test [6]. Moreover, the GI50 is 20.7 µM (inactive) in test [7]; 30.2 µM (inactive) in [8]; 13 µM (inactive) in [10]; 33.9 µM (inactive) in test [11]; 14.2 µM (inactive) in test [12].
For `COc1ccc(C(=O)C(C(=O)CCC(=O)Nc2cccc(Cl)c2)c2ccc(OC)cc2)cc1` (stereo unspecified), the GI50 in test [13], in test [1], in test [2], in test [3], in test [4] and in [6] was > 100 µM (inactive) throughout. In addition, the GI50 in test [7] was > 100 µM (inactive); in [8] it was > 100 µM (inactive); in [9], 61.2 µM (inactive); in test [10], > 100 µM (inactive); in test [11] it was > 100 µM (inactive); in test [12], > 100 µM (inactive).
As for `CCCCCCCCCCCCCCCCc1c(O)nc(NN)nc1C(=O)OC`, the GI50 in [13], in test [1], in test [2], in [3], in test [4] and in test [5] was > 50 µM (inactive) in each case. Besides, the GI50 in test [6], in test [7], in test [8], in [9], in test [11] and in test [12] was > 50 µM (inactive) in each case.
`Cn1cccc1/C=C/c1cc(Br)c(/C=C/c2cccn2C)cc1Br`: the GI50 in test [13] is 15.3 µM (inactive); in test [1], 15.2 µM (inactive); in [2], 16.3 µM (inactive); in test [3], 16.7 µM (inactive); in [4], 7.23 µM (inactive); in test [5], 12.6 µM (inactive). Further, the GI50 was 20.9 µM (inactive) in test [6]; 14.6 µM (inactive) in [7]; 24.2 µM (inactive) in test [8]; 3.13 µM (inactive) in test [9]; 22.5 µM (inactive) in [11]; 13 µM (inactive) in [12].
With `Cc1ccc(SSCCCCS(=O)O)cc1`, the GI50 in [13] is 18.9 µM (inactive); in [1] it was 5.74 µM (inactive); in test [2], 20.7 µM (inactive); in test [3], 24.3 µM (inactive); in test [4], 18.2 µM (inactive); in test [5], 12.7 µM (inactive). Further, the GI50 in [6] is 26.4 µM (inactive); in [7] it was 25.1 µM (inactive); in [8], 34.7 µM (inactive); in test [9] it was 14.1 µM (inactive); in test [11], 19.9 µM (inactive); in [12], 10.6 µM (inactive).
